Measurements from patent US20240360122A1, “POLYMORPHIC FORMS AND SALTS OF A GLP-1R AGONIST” (Terns (Suzhou) Biotechnology Co., Ltd., priority 2023, published 2024).
Converted amounts (≈) assume the structure as drawn. Where a name gives a salt, the structure may show the parent alone. Marks after values point to notes of the source that are not given here.

Tests used:
[1] = Approximate solubility in different solvents at RT; type: physicochemical; conditions: RT; for solubility: organic solvent or mixture
Procedure: For each experiment, approximately 2 mg of sample was added into a 3-mL glass vial. Corresponding solvents were then added stepwise (50/50/200/700/1000 μL) into the vials until the solids were dissolved visually or a total volume of 2 mL was reached. Solubility results summarized in Table 64 to Table 66 were used to guide the solvent selection in polymorph screening design.

[2] = Characterization of Compound 1 freeform forms: form change on storage or drying (XRPD); type: physicochemical
Procedure: Starting from Compound 1 Freeform Type D, polymorph screening experiments were performed under 50 conditions using different solvent-mediated crystallization or solid transition methods. The obtained solids were characterized by XRPD. According to XRPD comparison results, a total of 16 crystal forms were discovered, named as Type A˜P. The characterization results of all the forms were listed in Table 60.
Freeform Type O was obtained after adding anti-solvent toluene into DMSO solution of Freeform Type D and drying at ambient conditions. After drying at RT under vacuum for 1 day, diffraction peaks of Freeform Type K were observed. As Freeform Type K was a DMSO solvate, it is speculated that Freeform Type O was also a DMSO solvate.

[3] = Competitive experiments of Type A and Type B in different solvent system at different temperature; type: physicochemical; conditions: MeOH/MTBE system
[4] = Hygroscopicity by DVS at 25° C.; type: physicochemical
Procedure: DVS was measured via a SMS (Surface Measurement Systems) DVS Intrinsic. The relative humidity at 25° C. were calibrated against deliquescence point of LiCl, Mg(NO3)2 and KCl.

[5] = Solid state stability at 25° C./60% RH and 40° C./75% RH for 1 week; type: physicochemical
Procedure: Each sample was added into a glass vial, sealed by parafilm with several holes, and kept under tested conditions. After one week, samples were taken for XRPD and HPLC purity test.

[6] = Kinetic solubility in water and bio-relevant media (SGF, FaSSIF, FeSSIF) at 37° C.; type: physicochemical; conditions: for S: Solubility: calculated by freeform; for FC: Form change: residual solids by XRPD
Procedure: Add 4 mL of medium (H2O, SGF, FaSSIF and FeSSIF). • Rolled at 37° C. (˜25 rpm). Sampling at 1, 2, 4 and 24 hrs. • At each time-point, sampled 0.8 mL of solution or suspension into a centrifuge tube prior to centrifugation (12000 rpm, 37° C., 5 min) and filtration through 0.45 μm PTFE membrane. • Tested pH and concentration for the filtrate. Analyze residual solids by XRPD.
0.1 g of NaCl and 0.05 g of Triton X-100 were weighed into a 50-mL volumetric flask. Purified water was added to dissolve the solid. 67.5 μL HCl (38%, 12M) was added after the solid was dissolved completely. pH was then adjusted to 1.8 using HCl (1 M) or NaOH (1 M). Purified water was added to the volume.
(§1) 0.17 g of anhydrous NaH2PO4, 0.021 g of NaOH and 0.31 g of NaCl were weighed into a 50-mL volumetric flask. ˜48 mL purified water was added to dissolve the solid. pH was adjusted to 6.5 using 1M HCl or 1M NaOH. Purified water was then added to the volume. 0.11 g of SIF powder was added into the volumetric flask.
as §1, with “0.41 mL” for “0.17 g”, “acetic acid, 0.20” for “anhydrous NaH2PO4, 0.021”, “0.59” for “0.31”, “5.0” for “6.5”, “0.56” for “0.11”

Procedure for physchem: 0.1 M KH2PO4 solution: added 1.36 g of solid KH2PO4 into a 100-mL volumetric flask, dissolve with ultrapure water and dilute to volume. 0.1 M K2HPO4 solution: added 1.74 g of solid K2HPO4 into a 100-mL volumetric flask, dissolve with ultrapure water and dilute to volume.
Transferred 100 mL of 0.1 M K2HPO4 solution and 30 mL of 0.1 M KH2PO4 to a 250-mL beaker and mix well. Adjusted to pH 7.4 with the KH2PO4 solution to obtain the aqueous pH 7.4 buffer. Pre-equilibrated n-octanol and aqueous buffer (phosphate pH 7.4 buffer) by adding 10 mL n-octanol and 10 mL aqueous buffer into a glass vial and keep it rolling for 24 hrs.
Weighed approximately 1.0 mg solids into a 3-mL glass vial which contained 2.0 mL of saturated n-octanol and accelerate dissolution by ultrasound sonication. Added 1.0 mL of complementary saturated aqueous buffer into the vial. Prepare samples in triplicate. Sealed the glass vial and mix on a rotary mixer at 25° C. for 24 hrs.
The phases were separated. The pH of the aqueous phase was measured by pH meter, and the concentrations of compounds in each phase were determined by HPLC. Samples in n-octanol phase were diluted 10 times by ACN. Distribution coefficient, referred to as Dow, was calculated as the concentration of the test compound in the n-octanol phase divided by the corresponding concentration in the aqueous phase.

N#Cc1ccc(COc2cccc(C3CCN(Cc4nc5ccc(C(=O)O)cc5n4Cc4cncs4)CC3)n2)c(F)c1 [Freeform Type A]
solubility ([1]; 1,4-Dioxane, thermodynamic from solid, 1,4-Dioxane): 1900 to 6300 µg/mL (≈ 3.26 to 10.8 mM) | solubility ([1]; 2-MeTHF, thermodynamic from solid): 1900 to 6300 µg/mL (≈ 3.26 to 10.8 mM) | solubility ([1]; ACN, thermodynamic from solid): 1000 to 1900 µg/mL (≈ 1.72 to 3.26 mM) | solubility ([1]; Anisole, thermodynamic from solid): 1100 to 2100 µg/mL (≈ 1.89 to 3.6 mM) | solubility ([1]; CPME, thermodynamic from solid): 1100 to 2100 µg/mL (≈ 1.89 to 3.6 mM) | solubility ([1]; DMSO, thermodynamic from solid): > 40000 µg/mL | solubility ([1]; EtOAc, thermodynamic from solid): 2000 to 6700 µg/mL (≈ 3.43 to 11.5 mM) | Approximate solubility ([1]; H2O): S < 1.1 mg/mL | solubility ([1]; IPA, thermodynamic from solid): 1100 to 2200 µg/mL (≈ 1.89 to 3.78 mM) | solubility ([1]; IPAc, thermodynamic from solid): 1000 to 1900 µg/mL (≈ 1.72 to 3.26 mM) | solubility ([1]; MIBK, thermodynamic from solid): 1000 to 2000 µg/mL (≈ 1.72 to 3.43 mM) | solubility ([1]; MTBE, thermodynamic from solid): < 1000 µg/mL | solubility ([1]; MeOH, thermodynamic from solid): 6700 to 20000 µg/mL (≈ 11.5 to 34.3 mM) | Approximate solubility ([1]; THF): S > 38.0 mg/mL | solubility ([1]; Toluene, thermodynamic from solid): < 1100 µg/mL | solubility ([1]; n-Heptane, thermodynamic from solid): < 1000 µg/mL | logP (physchem): 4.78 | logD at 24 h (physchem; pH 7.2): 1.96

N#Cc1ccc(COc2cccc(C3CCN(Cc4nc5ccc(C(=O)O)cc5n4Cc4cncs4)CC3)n2)c(F)c1 [Freeform Type F]
Form change ([2]; after storage at RT): Change to Freeform Type J after storage at RT.

N#Cc1ccc(COc2cccc(C3CCN(Cc4nc5ccc(C(=O)O)cc5n4Cc4cncs4)CC3)n2)c(F)c1 [Freeform Type O]
Form change ([2]; after drying at RT under vacuum): Change to Freeform Type K after drying at RT under vacuum.

N#Cc1ccc(COc2cccc(C3CCN(Cc4nc5ccc(C(=O)O)cc5n4Cc4cncs4)CC3)n2)c(F)c1 [Meglumine salt Type B]
thermodynamic stability, Type A versus Type B [3]: thermodynamically more stable

N#Cc1ccc(COc2cccc(C3CCN(Cc4nc5ccc(C(=O)O)cc5n4Cc4cncs4)CC3)n2)c(F)c1 [Tris salt Type C]
water uptake (DVS) ([4]; 25° C./80% RH): 1.44% | hygroscopicity ([4]; DVS, 25° C.): slightly hygroscopic | Water uptake at 25° C./80% RH ([4]; DVS, 25° C./80% RH): 1.44 wt % | For change after DVS ([4]; XRPD after DVS test): No | form change after DVS test (XRPD) ([4]; after DVS test): no form change | HPLC peak Area, RRT 0.70 ([5]; 25° C./60% RH, 1 week): 0.06% | HPLC peak Area, RRT 0.79 ([5]; 25° C./60% RH, 1 week): 0.23% | HPLC peak Area, RRT 0.80 ([5]; 25° C./60% RH, 1 week): 0.05% | HPLC peak Area, RRT 0.85 ([5]; 25° C./60% RH, 1 week): 0.07% | HPLC peak Area, RRT 0.93 ([5]; 25° C./60% RH, 1 week): 0.09% | Form change ([5]; 25° C./60% RH/Open/1 week): No | Purity ([5]; 25° C./60% RH/Open/1 week): 96.76 Area % | solid-state stability: form change and purity decrease ([5]; 25° C./60% RH/open and 40° C./75% RH/open, 1 week): no form change or significant purity decrease | HPLC peak Area, RRT 0.70 ([5]; 40° C./75% RH, 1 week): 0.05% | HPLC peak Area, RRT 0.79 ([5]; 40° C./75% RH, 1 week): 0.25% | HPLC peak Area, RRT 0.80 ([5]; 40° C./75% RH, 1 week): 0.05% | HPLC peak Area, RRT 0.85 ([5]; 40° C./75% RH, 1 week): <0.05% | HPLC peak Area, RRT 0.93 ([5]; 40° C./75% RH, 1 week): 0.09% | HPLC peak Area, RRT 0.99 ([5]; 40° C./75% RH, 1 week): <0.05% | HPLC peak Area, RRT 1.12 ([5]; 40° C./75% RH, 1 week): 0.05% | Form change ([5]; 40° C./75% RH/Open/1 week): No | Purity ([5]; 40° C./75% RH/Open/1 week): 96.82 Area % | HPLC peak Area, RRT 0.70 ([5]; Initial): 0.05% | HPLC peak Area, RRT 0.79 ([5]; Initial): 0.21% | HPLC peak Area, RRT 0.80 ([5]; Initial): 0.05% | HPLC peak Area, RRT 0.85 ([5]; Initial): 0.08% | HPLC peak Area, RRT 0.93 ([5]; Initial): 0.09% | HPLC peak Area, RRT 1.12 ([5]; Initial): 0.06% | Purity ([5]; Initial): 96.55 Area % | S: Solubility ([6]; FaSSIF, 37° C., 1 hr): 0.16 mg/mL | FC: Form change ([6]; FaSSIF, 37° C., 1 hr): Yes | S: Solubility ([6]; FaSSIF, 37° C., 2 hrs): 0.29 mg/mL | FC: Form change ([6]; FaSSIF, 37° C., 2 hrs): Yes | S: Solubility ([6]; FaSSIF, 37° C., 4 hrs): 0.28 mg/mL | FC: Form change ([6]; FaSSIF, 37° C., 4 hrs): Yes | S: Solubility ([6]; FaSSIF, 37° C., 24 hrs): 0.04 mg/mL | FC: Form change ([6]; FaSSIF, 37° C., 24 hrs): Yes | S: Solubility ([6]; FeSSIF, 37° C., 1 hr): 0.17 mg/mL | FC: Form change ([6]; FeSSIF, 37° C., 1 hr): No | S: Solubility ([6]; FeSSIF, 37° C., 2 hrs): 0.13 mg/mL | FC: Form change ([6]; FeSSIF, 37° C., 2 hrs): No | S: Solubility ([6]; FeSSIF, 37° C., 4 hrs): 0.02* mg/mL | FC: Form change ([6]; FeSSIF, 37° C., 4 hrs): No | FC: Form change ([6]; FeSSIF, 37° C., 24 hrs): Yes | solubility at 24 h ([6]; FeSSIF, 37 °C, pH 5, fessif, thermodynamic from solid, FeSSIF, 37° C., at 24 hrs, read-out: solubility in FeSSIF): 140 µg/mL | S: Solubility ([6]; H2O, 37° C., 1 hr): 0.46 mg/mL | FC: Form change ([6]; H2O, 37° C., 1 hr): No | S: Solubility ([6]; H2O, 37° C., 2 hrs): 0.59 mg/mL | FC: Form change ([6]; H2O, 37° C., 2 hrs): Yes | S: Solubility ([6]; H2O, 37° C., 4 hrs): 2.5 mg/mL | FC: Form change ([6]; H2O, 37° C., 4 hrs): Yes | S: Solubility ([6]; H2O, 37° C., 24 hrs): 0.99 mg/mL | FC: Form change ([6]; H2O, 37° C., 24 hrs): Yes | S: Solubility ([6]; SGF, 37° C., 1 hr): 0.15 mg/mL | FC: Form change ([6]; SGF, 37° C., 1 hr): No | S: Solubility ([6]; SGF, 37° C., 2 hrs): 0.03* mg/mL | FC: Form change ([6]; SGF, 37° C., 2 hrs): No | S: Solubility ([6]; SGF, 37° C., 4 hrs): 0.04* mg/mL | FC: Form change ([6]; SGF, 37° C., 4 hrs): Yes | S: Solubility ([6]; SGF, 37° C., 24 hrs): 0.17 mg/mL | FC: Form change ([6]; SGF, 37° C., 24 hrs): Yes | form change of residual solids (XRPD) after solubility test ([6]; all the media (H2O, SGF, FaSSIF, FeSSIF), after 24 hrs): form change was observed | Kinetic Solubility, 24-h solubility ([6]; in FeSSIF, 24 h, comparison among selected salts and Freeform Type C): 2) In FeSSIF, the 24-h solubility of Tris salt Type C was higher.
